Measurements published in patent publication US20230312529A1, “PYRIMIDINE SMALL-MOLECULE COMPOUND AND APPLICATION THEREOF” (WENZHOU MEDICAL UNIVERSITY, priority 2021, published 2023).
Where two headings read alike, the source gives them in different places.

Key:
ALK = ALK (Homo sapiens (Human), UniProt Q9UM73); assay: Caliper Mobility Shift kinase inhibition test; type: biochemical
Method: (§1) The method adopted in the test was Caliper Mobility Shift Assay, which was a detection platform based on the mobility detection technology of microfluidic chip technology. Test steps: 1.25× kinase reaction buffer (62.5 mmol/L HEPES, pH 7.5; 0.001875% Brij-35; 12.5 mmol/L MgCl2; 2.5 mM DTT) and kinase reaction stop solution (100 mmol/L HEPES, pH 7.5; 0.015% Brij-35; 0.2% Coating Reagent #3) were configured. […] Collected data was tested on Caliper to yield that inhibition ratio to kinase activity=(max−conversion)/(max−min)×100. “max” was DMSO control without adding compound, and “min” was low control. When IC50 was determined, each sample was provided with 10 dilutions, each with 2 multiple holes, and repeated for 3 times.

IKK β = IKK β (Homo sapiens (Human), UniProt O14920); assay: Caliper Mobility Shift kinase inhibition test; type: biochemical
Method: as §1

FLT3 = FLT3 (Homo sapiens (Human), UniProt P36888); assay: Caliper Mobility Shift kinase inhibition test; type: biochemical; settings: 100 nM; read-out: inhibitory rate on FLT3
Method: as §1

[1] = system: human brain microvascular endothelial cells (HCMEC/D3); assay: MTT assay on human neovascular cells; type: cell-based
[2] = system: PDGFR signaling pathway related proteins in MNNG cells; assay: Western Blot of PDGFR signaling pathway protein phosphorylation; type: cell-based; settings: 0.1, 0.2 and 0.4 uM, 48 hours
Method: (§2) After pretreating the osteosarcoma cell line with the compound for 48 hours, the culture medium was sucked off, washed with PBS for 3 times, and the total protein was extracted after lysis. A phosphorylation level of the PDGFR signaling pathway related proteins was detected by Western Blot.

[3] = system: PDGFR signaling pathway related proteins in MG63 cells; assay: as above; type: cell-based; settings: 0.1, 0.2 and 0.4 uM, 48 hours
Method: as §2

FGFR3 = FGFR3 (Homo sapiens (Human), UniProt P22607); assay: Kinase selectivity test; type: biochemical; settings: 100 nM
Method: as §1
(§3) According to the above-mentioned method for measuring kinase inhibitory activity, the inhibitory activity of the active compounds on other multiple kinases was measured to characterize the kinase selectivity of active inhibitors.

EGFR = EGFR (Homo sapiens (Human), UniProt P00533); assay: Kinase selectivity test; type: biochemical; settings: 100 nM
Method: as §1, §3

FGFR1 = FGFR1 (Homo sapiens (Human), UniProt P11362); assay: Kinase selectivity test; type: biochemical; settings: 100 nM
Method: as §1, §3

EGFR L858R = EGFR L858R (Homo sapiens (Human), UniProt P00533, L858R); assay: Kinase selectivity test; type: biochemical; settings: 100 nM
Method: as §1, §3

EGFR T790M = EGFR T790M (Homo sapiens (Human), UniProt P00533, T790M); assay: Kinase selectivity test; type: biochemical; settings: 100 nM
Method: as §1, §3

KDR = KDR (Homo sapiens (Human), UniProt P35968); assay: Kinase selectivity test; type: biochemical; settings: 100 nM
Method: as §1, §3

FLT1 = FLT1 (Homo sapiens (Human), UniProt P17948); assay: Kinase selectivity test; type: biochemical; settings: 100 nM
Method: as §1, §3

EGFR L858R/T790M/C797S = EGFR L858R/T790M/C797S (Homo sapiens (Human), UniProt P00533, C797S/L858R/T790M); assay: Kinase selectivity test; type: biochemical; settings: 100 nM
Method: as §1, §3

EGFR/T790M/L858R = EGFR/T790M/L858R (Homo sapiens (Human), UniProt P00533, L858R/T790M); assay: Kinase selectivity test; type: biochemical; settings: 100 nM
Method: as §1, §3

SRC = SRC (Homo sapiens (Human), UniProt P12931); assay: Kinase selectivity test; type: biochemical; settings: 100 nM
Method: as §1, §3

BTK = BTK (Homo sapiens (Human), UniProt Q06187); assay: Kinase selectivity test; type: biochemical; settings: 100 nM
Method: as §1, §3

U2OS osteosarcoma cells = assay: MTT assay on osteosarcoma cells; type: cell-based; settings: Homo sapiens, 48 hours, read-out: Inhibitory activity (IC50) U2OS
Method: Logarithmic osteosarcoma cells were inoculated into a 96-well plate with a cell concentration of 1,500 cell/well for 6 hours by using MTT assay, and each well was filled with 200 μL of cell suspension. […] The samples were cultured in an incubator for 48 hours (37° C., 5% CO2), and 20 v L of MTT (3-(4,5-dimethylthiazole-2)-2,5-diphenyltetrazole) were added into each hole. After continuous culture for 4 hours, the culture solution was discarded by suction, and 200 v L of DMSO were added to each well. […] Calculation method of IC50 value: the IC50 values of the samples were calculated by curve fitting with GraphPad Prism software.

[4] = system: human cerebrovascular pericytes (HBVP); assay: MTT assay on human neovascular cells; type: cell-based
[5] = compared with multiple positive drugs

Sequence of EGFR T790M (P00533 25-1210 T790M): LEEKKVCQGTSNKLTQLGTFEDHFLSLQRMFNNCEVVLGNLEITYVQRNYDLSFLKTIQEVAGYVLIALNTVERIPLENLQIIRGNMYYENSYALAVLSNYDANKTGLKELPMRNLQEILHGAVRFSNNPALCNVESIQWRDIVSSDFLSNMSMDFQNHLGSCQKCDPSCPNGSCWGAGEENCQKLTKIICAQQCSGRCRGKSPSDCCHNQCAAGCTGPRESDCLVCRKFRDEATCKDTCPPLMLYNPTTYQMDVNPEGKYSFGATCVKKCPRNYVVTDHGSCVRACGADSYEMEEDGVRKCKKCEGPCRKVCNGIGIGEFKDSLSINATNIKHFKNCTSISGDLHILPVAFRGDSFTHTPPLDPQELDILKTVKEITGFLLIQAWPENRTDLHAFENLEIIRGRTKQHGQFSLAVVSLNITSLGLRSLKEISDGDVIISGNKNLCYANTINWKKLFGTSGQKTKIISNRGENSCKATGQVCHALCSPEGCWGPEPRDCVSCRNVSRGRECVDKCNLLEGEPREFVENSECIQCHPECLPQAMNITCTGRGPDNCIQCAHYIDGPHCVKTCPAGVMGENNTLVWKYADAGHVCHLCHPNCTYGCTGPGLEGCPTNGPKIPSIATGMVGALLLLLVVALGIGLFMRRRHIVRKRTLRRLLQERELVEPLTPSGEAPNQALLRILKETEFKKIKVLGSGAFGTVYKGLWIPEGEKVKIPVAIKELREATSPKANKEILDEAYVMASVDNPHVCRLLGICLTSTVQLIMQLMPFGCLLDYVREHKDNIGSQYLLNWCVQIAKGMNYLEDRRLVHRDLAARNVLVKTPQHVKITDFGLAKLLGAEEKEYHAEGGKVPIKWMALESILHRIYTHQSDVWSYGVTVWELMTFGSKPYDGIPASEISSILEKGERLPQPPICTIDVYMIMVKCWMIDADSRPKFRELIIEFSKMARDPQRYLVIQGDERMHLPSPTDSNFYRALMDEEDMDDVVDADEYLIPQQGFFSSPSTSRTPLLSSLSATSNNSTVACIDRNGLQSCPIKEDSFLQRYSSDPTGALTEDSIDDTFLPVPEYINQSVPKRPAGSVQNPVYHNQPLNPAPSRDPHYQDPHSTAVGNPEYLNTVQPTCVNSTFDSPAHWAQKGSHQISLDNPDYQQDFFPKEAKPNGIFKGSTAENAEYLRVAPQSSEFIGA
Sequence of FGFR3 (P22607 23-806, species assumed): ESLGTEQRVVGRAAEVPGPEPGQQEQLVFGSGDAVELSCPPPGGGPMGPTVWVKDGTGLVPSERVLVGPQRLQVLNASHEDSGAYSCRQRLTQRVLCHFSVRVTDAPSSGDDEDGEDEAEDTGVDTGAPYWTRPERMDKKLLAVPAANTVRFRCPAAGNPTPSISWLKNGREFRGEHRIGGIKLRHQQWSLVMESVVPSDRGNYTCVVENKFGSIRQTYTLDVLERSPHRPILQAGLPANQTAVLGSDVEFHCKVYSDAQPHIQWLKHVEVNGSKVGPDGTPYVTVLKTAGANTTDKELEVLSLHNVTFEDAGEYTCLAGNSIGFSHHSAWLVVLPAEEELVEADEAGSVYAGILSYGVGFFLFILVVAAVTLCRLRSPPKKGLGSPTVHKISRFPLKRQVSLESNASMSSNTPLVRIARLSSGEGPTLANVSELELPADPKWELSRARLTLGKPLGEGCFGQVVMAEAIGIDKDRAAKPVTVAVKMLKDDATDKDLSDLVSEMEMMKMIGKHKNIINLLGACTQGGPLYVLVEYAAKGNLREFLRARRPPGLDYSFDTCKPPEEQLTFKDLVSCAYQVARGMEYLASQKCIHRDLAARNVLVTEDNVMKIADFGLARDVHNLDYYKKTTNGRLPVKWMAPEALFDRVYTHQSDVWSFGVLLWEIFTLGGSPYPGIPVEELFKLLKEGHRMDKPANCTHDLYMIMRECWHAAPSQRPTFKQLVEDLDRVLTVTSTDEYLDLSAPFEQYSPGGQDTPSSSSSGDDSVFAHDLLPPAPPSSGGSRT
Sequence of SRC (P12931 whole entry, looked up, species assumed): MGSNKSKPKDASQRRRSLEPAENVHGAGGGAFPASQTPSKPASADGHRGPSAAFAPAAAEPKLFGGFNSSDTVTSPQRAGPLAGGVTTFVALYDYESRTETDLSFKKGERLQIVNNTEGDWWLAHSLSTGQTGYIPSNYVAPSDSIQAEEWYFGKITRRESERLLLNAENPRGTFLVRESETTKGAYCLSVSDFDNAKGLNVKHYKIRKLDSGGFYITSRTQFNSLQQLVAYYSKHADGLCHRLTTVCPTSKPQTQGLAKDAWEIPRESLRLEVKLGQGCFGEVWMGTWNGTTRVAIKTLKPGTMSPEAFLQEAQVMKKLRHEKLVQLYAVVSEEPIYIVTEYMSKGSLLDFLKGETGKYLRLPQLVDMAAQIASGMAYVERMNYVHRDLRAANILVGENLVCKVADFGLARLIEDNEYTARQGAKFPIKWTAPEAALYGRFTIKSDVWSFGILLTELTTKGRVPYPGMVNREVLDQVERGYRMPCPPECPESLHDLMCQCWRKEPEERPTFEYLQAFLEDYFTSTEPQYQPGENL
Sequence of EGFR L858R (P00533 25-1210 L858R): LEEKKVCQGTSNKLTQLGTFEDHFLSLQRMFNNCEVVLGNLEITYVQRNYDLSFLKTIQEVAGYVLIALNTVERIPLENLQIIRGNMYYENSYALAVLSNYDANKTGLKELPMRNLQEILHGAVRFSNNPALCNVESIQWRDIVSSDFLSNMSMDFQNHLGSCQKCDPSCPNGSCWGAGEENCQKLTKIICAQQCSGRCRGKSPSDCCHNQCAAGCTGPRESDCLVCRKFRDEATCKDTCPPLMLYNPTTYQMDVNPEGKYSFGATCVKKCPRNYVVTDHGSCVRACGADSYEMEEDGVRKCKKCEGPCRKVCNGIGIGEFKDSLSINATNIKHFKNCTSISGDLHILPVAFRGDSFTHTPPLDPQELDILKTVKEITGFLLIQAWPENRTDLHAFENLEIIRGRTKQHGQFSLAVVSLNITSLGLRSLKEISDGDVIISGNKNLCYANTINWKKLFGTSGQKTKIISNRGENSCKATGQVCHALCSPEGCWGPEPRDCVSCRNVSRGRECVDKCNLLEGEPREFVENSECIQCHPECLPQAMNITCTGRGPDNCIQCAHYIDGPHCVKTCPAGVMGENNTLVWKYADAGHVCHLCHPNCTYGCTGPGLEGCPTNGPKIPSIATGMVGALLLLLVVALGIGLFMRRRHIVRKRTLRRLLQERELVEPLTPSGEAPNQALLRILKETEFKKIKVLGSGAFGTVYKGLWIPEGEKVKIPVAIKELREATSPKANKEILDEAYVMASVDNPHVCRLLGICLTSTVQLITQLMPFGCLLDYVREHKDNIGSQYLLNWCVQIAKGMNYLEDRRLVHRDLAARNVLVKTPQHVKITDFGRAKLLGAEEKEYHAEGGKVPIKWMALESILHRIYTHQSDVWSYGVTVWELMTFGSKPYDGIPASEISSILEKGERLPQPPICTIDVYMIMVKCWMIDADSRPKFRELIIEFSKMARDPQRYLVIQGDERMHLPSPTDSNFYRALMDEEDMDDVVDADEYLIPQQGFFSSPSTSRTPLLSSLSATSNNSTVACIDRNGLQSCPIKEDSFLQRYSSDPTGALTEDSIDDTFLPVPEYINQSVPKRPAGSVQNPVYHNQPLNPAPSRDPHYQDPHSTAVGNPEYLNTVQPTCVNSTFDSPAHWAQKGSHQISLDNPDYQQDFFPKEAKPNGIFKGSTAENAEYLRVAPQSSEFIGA
Sequence of EGFR/T790M/L858R (P00533 25-1210 T790M/L858R): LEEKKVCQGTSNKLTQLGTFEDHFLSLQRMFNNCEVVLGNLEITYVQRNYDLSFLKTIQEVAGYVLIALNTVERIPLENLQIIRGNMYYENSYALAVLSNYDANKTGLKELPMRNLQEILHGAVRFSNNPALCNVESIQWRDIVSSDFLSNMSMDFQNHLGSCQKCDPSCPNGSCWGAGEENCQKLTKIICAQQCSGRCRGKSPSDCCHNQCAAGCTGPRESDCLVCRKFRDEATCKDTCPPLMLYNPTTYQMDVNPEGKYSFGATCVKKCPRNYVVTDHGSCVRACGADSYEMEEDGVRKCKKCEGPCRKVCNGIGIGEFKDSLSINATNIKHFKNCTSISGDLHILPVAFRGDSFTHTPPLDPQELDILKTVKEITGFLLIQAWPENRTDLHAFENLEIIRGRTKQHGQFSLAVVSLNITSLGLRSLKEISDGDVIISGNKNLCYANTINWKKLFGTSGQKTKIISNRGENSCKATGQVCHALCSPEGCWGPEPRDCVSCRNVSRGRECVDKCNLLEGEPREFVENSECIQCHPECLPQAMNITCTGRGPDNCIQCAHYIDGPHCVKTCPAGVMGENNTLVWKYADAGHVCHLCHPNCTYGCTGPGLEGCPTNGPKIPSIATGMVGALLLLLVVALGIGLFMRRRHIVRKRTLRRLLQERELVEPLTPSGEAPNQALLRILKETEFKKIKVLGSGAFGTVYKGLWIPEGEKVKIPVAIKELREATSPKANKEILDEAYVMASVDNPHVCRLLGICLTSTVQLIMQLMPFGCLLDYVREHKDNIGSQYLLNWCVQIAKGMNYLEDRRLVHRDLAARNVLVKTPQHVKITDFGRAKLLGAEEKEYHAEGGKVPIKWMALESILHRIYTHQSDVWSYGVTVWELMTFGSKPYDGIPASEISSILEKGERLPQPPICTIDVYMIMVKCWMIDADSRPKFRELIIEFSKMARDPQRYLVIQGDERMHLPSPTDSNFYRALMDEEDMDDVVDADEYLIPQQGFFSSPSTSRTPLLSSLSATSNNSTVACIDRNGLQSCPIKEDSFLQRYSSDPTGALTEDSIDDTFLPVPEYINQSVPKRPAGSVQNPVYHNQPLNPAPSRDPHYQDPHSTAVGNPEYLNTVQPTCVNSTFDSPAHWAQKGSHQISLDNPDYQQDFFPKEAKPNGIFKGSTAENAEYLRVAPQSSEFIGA

IC50 (ALK): 5 nM | IC50 (IKK β): 694 nM | inhibition at 0.1 µM (FLT3): 98.9% | inhibition at 0.1 µM (FGFR3; average, read-out: Average % inhibition FGFR3): 10.9% | inhibition at 0.1 µM (FGFR3; replicate 1, read-out: % inhibition 1 FGFR3): 8.1% | inhibition at 0.1 µM (FGFR3; replicate 2, read-out: % inhibition 2 FGFR3): 13.7% | inhibition at 0.1 µM (EGFR; average, read-out: Average % inhibition EGFR): 42.3% | inhibition at 0.1 µM (EGFR; replicate 1, read-out: % inhibition 1 EGFR): 40.9% | inhibition at 0.1 µM (EGFR; replicate 2, read-out: % inhibition 2 EGFR): 43.6% | inhibition at 0.1 µM (FGFR1; average, read-out: Average % inhibition FGFR1): 65.8% | inhibition at 0.1 µM (FGFR1; replicate 1, read-out: % inhibition 1 FGFR1): 65% | inhibition at 0.1 µM (FGFR1; replicate 2, read-out: % inhibition 2 FGFR1): 66.6% | inhibition at 0.1 µM (EGFR L858R; average, read-out: Average % inhibition EGFR L858R): 62.1% | inhibition at 0.1 µM (EGFR L858R; replicate 1, read-out: % inhibition 1 EGFR L858R): 61.7% | inhibition at 0.1 µM (EGFR L858R; replicate 2, read-out: % inhibition 2 EGFR L858R): 62.6% | inhibition at 0.1 µM (EGFR T790M; average, read-out: Average % inhibition EGFR T790M): 56.9% | inhibition at 0.1 µM (EGFR T790M; replicate 1, read-out: % inhibition 1 EGFR T790M): 57% | inhibition at 0.1 µM (EGFR T790M; replicate 2, read-out: % inhibition 2 EGFR T790M): 56.8% | inhibition at 0.1 µM (KDR; average, read-out: Average % inhibition KDR): 71.4% | inhibition at 0.1 µM (KDR; replicate 1, read-out: % inhibition 1 KDR): 71.5% | inhibition at 0.1 µM (KDR; replicate 2, read-out: % inhibition 2 KDR): 71.3% | inhibition at 0.1 µM (FLT1; average, read-out: Average % inhibition FLT1): 79.7% | inhibition at 0.1 µM (FLT1; replicate 1, read-out: % inhibition 1 FLT1): 78.7% | inhibition at 0.1 µM (FLT1; replicate 2, read-out: % inhibition 2 FLT1): 80.7% | inhibition at 0.1 µM (EGFR L858R/T790M/C797S; average, read-out: Average % inhibition EGFR L858R/T790M/C797S): 74.5% | inhibition at 0.1 µM (EGFR L858R/T790M/C797S; replicate 1, read-out: % inhibition 1 EGFR L858R/T790M/C797S): 73.4% | inhibition at 0.1 µM (EGFR L858R/T790M/C797S; replicate 2, read-out: % inhibition 2 EGFR L858R/T790M/C797S): 75.7% | inhibition at 0.1 µM (EGFR/T790M/L858R; average, read-out: Average % inhibition EGFR/T790M/L858R): 77.2% | inhibition at 0.1 µM (EGFR/T790M/L858R; replicate 1, read-out: % inhibition 1 EGFR/T790M/L858R): 76.6% | inhibition at 0.1 µM (EGFR/T790M/L858R; replicate 2, read-out: % inhibition 2 EGFR/T790M/L858R): 77.9% | inhibition at 0.1 µM (SRC; average, read-out: Average % inhibition SRC): 92.2% | inhibition at 0.1 µM (SRC; replicate 1, read-out: % inhibition 1 SRC): 91% | inhibition at 0.1 µM (SRC; replicate 2, read-out: % inhibition 2 SRC): 93.5% | inhibition at 0.1 µM (BTK; average, read-out: Average % inhibition BTK): 50.2% | inhibition at 0.1 µM (BTK; replicate 1, read-out: % inhibition 1 BTK): 49.1% | inhibition at 0.1 µM (BTK; replicate 2, read-out: % inhibition 2 BTK): 51.3% | IC50 (U2OS osteosarcoma cells): 418 ± 17 nM
Compound: CCN1CCN(c2ccc(Nc3ncc(C)c(Nc4ccc5cn[nH]c5c4)n3)cc2OC)CC1 [Compound 6i, N^2-(4-(4-ethylpiperazine-1-yl)-3-methoxyphenyl)-N^4-(1H-indazol-6-yl)-5-methylpyrimidine-2,4-diamine]
IC50 ([1]; Homo sapiens, hCMEC/D3, MTT, read-out: Inhibitory activity (IC50) HCMEC-D3): 230 ± 2 nM | inhibitory activity on HCMEC/D3 (in words) [1, 5]: strong inhibitory activity | inhibition of phosphorylation of signaling pathway proteins [2]: strong dose-dependent inhibition | inhibition of phosphorylation of signaling pathway proteins [3]: strong dose-dependent inhibition | IC50 ([4]; Homo sapiens, MTT, read-out: Inhibitory activity (IC50) HBVP): 550 ± 98 nM | inhibitory activity on HBVP (in words) [4, 5]: strong inhibitory activity
